Results taken from patent publication US4260605A, “Novel alkylated pregnanes, processes for their preparation and pharmaceutical compositions containing same” (Akzo N.V., priority 1979, dated 1981).

System: dorsal shaved skin
Test: Rat seven-day intracutaneous skin thinning test (skin thinning and systemic effects)
Type: in vivo, rat (male, strain CFHB)
Conditions: for systemic effects: conclusion in words; for Final body weight / Combined adrenal weight / Thymus weight / Spleen weight / Treated skin weight: mean; for Final body weight: 8 mg intracutaneous (16×0.5 mg), autopsy seven days later, initial body weight 200±3 g, control 249; for Combined adrenal weight / Thymus weight / Spleen weight / Treated skin weight: 8 mg intracutaneous, seven days; for Combined adrenal weight: control 41.5; for Thymus weight: control 612; for Spleen weight: control 788; for Treated skin weight: 4×4 cm area of treated skin, control 1.630
Protocol: Male rats strain CFHB, initial body weight 200±3 g, were used in the experiment and divided in seven groups each containing 10 animals, six groups being used for testing the compounds a-f and the seventh group serving as controls.
Each anaesthetised animal in each group received 8 mg of the respective compound injected as 16×0.5 mg suspended in 0.05 ml of suspension fluid into a 4×4 cm area of dorsal shaved skin. […]
At autopsy seven days later the spleen, adrenals, thymus and body weight were recorded in addition to the 4×4 cm area of treated skin. Table B summarises the means of the results.

| systemic effects | Combined adrenal weight [mg] | Thymus weight [mg] | Spleen weight [mg] | Treated skin weight [g] | SMILES | Final body weight [g] |
| --- | --- | --- | --- | --- | --- | --- |
| have systemic effects | 17.4 | 65 | 150 | 1.107 | CC1(C)O[C@@H]2C[C@H]3[C@@H]4CCC5=CC(=O)C=C[C@]5(C)[C@@]4(F)[C@@H](O)C[C@]3(C)[C@]2(C(=O)CO)O1 [h, triamcinolone acetonide] | 142 |
| have systemic effects | 34.7 | 96 | 503 | 1.410 | CCCC(=O)O[C@]1(C(=O)CO)CC[C@H]2[C@@H]3CCC4=CC(=O)CC[C@]4(C)[C@H]3[C@@H](O)C[C@@]21C [g, hydrocortisone 17n-butyrate] | 227 |
| have systemic effects | 21.5 | 96 | 445 | 1.445 | CCCCC(=O)O[C@]1(C(=O)CO)[C@@H](C)C[C@H]2[C@@H]3CCC4=CC(=O)C=C[C@]4(C)[C@@]3(F)[C@@H](O)C[C@@]21C [f, betamethasone 17valerate] | 229 |

| SMILES | systemic effects | Combined adrenal weight [mg] | Thymus weight [mg] | Spleen weight [mg] | Treated skin weight [g] | Final body weight [g] |
| --- | --- | --- | --- | --- | --- | --- |
| CCCC(=O)O[C@]1(C(=O)CC)CC[C@H]2[C@@H]3CCC4=CC(=O)CC[C@]4(C)[C@H]3[C@@H](O)C[C@@]21C [b, 11β,17dihydroxy-21-methyl-Δ^4pregnene-3,20-dione 17n-butyrate] |  | 36.3 | 533 | 727 | 1.660 | 249 |
